{
  "source": "patent US20090010873A1",
  "about": "“Methods of Cell Therapy, Neurogenesis and Oligodendrogenesis” (YEDA RESEARCH AND DEVELOPMENT CO. LTD., priority 2004, published 2009)",
  "tested_on": "aNPCs",
  "assay": "Neuronal differentiation of aNPCs with CD4+ T cells, T cell-conditioned medium or cytokines",
  "assay_type": "cell-based, mouse",
  "conditions": "aNPCs cultured 5 days with the cytokine",
  "description": "(xxxiii) Co-culturing of neural progenitor cells and T cells. CD4+ T cells were purified from lymph nodes of 8-week-old C57B16/J mice as previously described (Kipnis et al., 2004). T cells were activated in RPMI medium supplemented with L-glutamine (2 mM), 2-mercaptoethanol (5×10^−5 M), sodium pyruvate (1 mM), penicillin (100 IU/ml), streptomycin (100 μg/ml), nonessential amino acids (1 ml/100 ml), and autologous serum 2% (v/v) in the presence of mouse recombinant IL-2 (mrIL-2; 5 ng/ml) and soluble anti-CD28 and anti-CD3 antibodies (1 ng/ml). T cells were co-cultured (5×10^4 cells/well) with aNPCs (5×10^4 cells/well) for 5 d on cover slips coated with Matrigel (BD Biosciences) in 24-well plates. The cultures were then fixed with 2.5% paraformaldehyde in PBS for 30 min at room temperature and stained for neuronal markers.\nWe therefore sought to determine whether direct interaction between aNPCs and T cells would also result in an altered pattern of aNPC differentiation. To address this question, we activated CD4+ T cells in vitro by a cognate protocol (with anti-CD3 antibodies, anti-CD28 antibodies, and IL-2) for 24 h and then allowed their activation to continue in co-cultures with aNPCs in a transwell culture system. […] After 5 days in culture the aNPCs in the lower chamber were fixed and analyzed for the appearance of newly formed neurons. […]",
  "data": [
    {"substance": "IFN-γ", "values": [
      {"measurement": "concentration (as low as) inducing an increase in β-III tubulin expression", "value": 1, "unit": "ng/mL"}
    ]}
  ]
}
